According to patent US11872225B2, “Pyruvate kinase modulators and use thereof” (Agios Pharmaceuticals, Inc., priority 2017, dated 2024):

Biological target: wild type PKM2 (Homo sapiens, UniProt P14618)
Test: PKM2 Assay (LDH/NADH-coupled, absorbance at 340 nm)
Format: biochemical
Details: wild type PKM2 activation; 60 min preincubation at 25° C.; ADP 0.4 mM, PEP 0.11 mM; read-out: PKM2 WT AC50
Protocol: A compound described herein may be tested for its ability to activate PKM2. For simplicity, the activation activity of these compounds is represented as an AC50 in Table 2. In Tables 2, a compound described herein may have an AC50 of wild type PKM2.
PKM2 enzyme stock solution was diluted to prepare a 1.11× Reaction Mix (without ADP). 1 μL of test compound was first added to the wells followed by 40 μL of 1.11× Reaction Mix (without ADP) and incubated at room temperature (25° C.) for 60 min. The reaction was initiated with 10 μL ADP (0.4 mM final concentration), bringing the final Reaction Mix to 1×, and the reaction progress was measured as changes in absorbance at 340 nm wavelength at room temperature.
Test compound preparation: Test compounds were prepared at 50× final concentration in DMSO. 1 to 3 dilutions were made for 11 points (for example 50 μL of 5000 μM compound was added to 100 μL 100% DMSO to yield a 1667 μM, 50 μL of this added to 100 μL DMSO to yield 556 μM, and so forth). The compounds were added to the assay as a 1 to 50 dilution (1 μL in 50 μL) to yield a top concentration of 100 μM, decreasing 3-fold for 11 points.
Reaction Mix: PKM2 (5 ng/well, 0.1 μg/ml), ADP (0.4 mM), PEP (0.11 mM), NADH (180 μM), LDH (0.005 U/μL, Sigma #L3888), 1 mM DTT, 0.03% BSA in 1× Reaction Buffer
Reaction Buffer: 100 mM KCl, 50 mM Tris pH 7.5, 5 mM MgCl2.

Chain of wild type PKM2 (P14618 whole entry): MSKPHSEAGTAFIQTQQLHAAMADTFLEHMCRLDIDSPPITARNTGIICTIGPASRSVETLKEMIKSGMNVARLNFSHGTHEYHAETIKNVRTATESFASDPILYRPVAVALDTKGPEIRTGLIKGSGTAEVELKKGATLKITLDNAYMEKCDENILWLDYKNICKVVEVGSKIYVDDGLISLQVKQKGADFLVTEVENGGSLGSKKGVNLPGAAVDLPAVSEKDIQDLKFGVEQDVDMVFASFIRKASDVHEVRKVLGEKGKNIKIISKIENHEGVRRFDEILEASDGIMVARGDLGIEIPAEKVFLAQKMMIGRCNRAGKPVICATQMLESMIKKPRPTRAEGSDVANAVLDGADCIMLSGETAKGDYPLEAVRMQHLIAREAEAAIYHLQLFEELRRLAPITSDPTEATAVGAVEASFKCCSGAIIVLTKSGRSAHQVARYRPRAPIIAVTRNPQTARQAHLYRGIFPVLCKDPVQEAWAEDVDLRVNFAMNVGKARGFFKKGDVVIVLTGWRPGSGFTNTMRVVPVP

Compound | AC50
Cn1c2nc(C#N)sc2c2cnn(Cc3csc(N)n3)c(=O)c21 [Compound 54] | < 300 nM
Cn1c2nc(Cc3ccc(C(N)=O)cc3)sc2c2cnn(Cc3cccc4[nH]ncc34)c(=O)c21 [Compound 42] | > 800 nM
COC(=O)C(C(=O)OC)c1nc2c(s1)c1cnn(Cc3cccc4[nH]ncc34)c(=O)c1n2C [Compound 43] | < 300 nM
Cn1c2nc(Cc3cc[nH]n3)sc2c2cnn(Cc3coc(C(N)=O)n3)c(=O)c21 [Compound 132] | < 300 nM
Cc1nc2c(s1)c1cnn(CCOCCO)c(=O)c1n2C [Compound 20] | > 800 nM
Cn1c2nc([S+](C)[O-])sc2c2cnn(Cc3ccnc(N)n3)c(=O)c21 (centres unmarked) [Compound 36] | 301 to 800 nM
Cc1nc2c(s1)c1cnn(Cc3cccc([N+](=O)[O-])c3)c(=O)c1n2C [Compound 16] | 301 to 800 nM
Cn1c2nc(Cc3cccc(N)n3)sc2c2cnn(Cc3cc[nH]n3)c(=O)c21 [Compound 101] | < 300 nM
Cn1c2nc(Cc3cc[nH]n3)sc2c2cnn(Cc3csc(N)n3)c(=O)c21 [Compound 75] | < 300 nM
Cn1c2nc(Cc3cc[nH]n3)sc2c2cnn(Cc3ccc4scnc4c3)c(=O)c21 [Compound 88] | < 300 nM
Cn1c2nc(Cc3cc[nH]n3)sc2c2cnn(Cc3nccs3)c(=O)c21 [Compound 78] | < 300 nM
CC(=O)Nc1ccc(F)c(Cn2ncc3c4sc(Cc5cc[nH]n5)nc4n(C)c3c2=O)n1 [Compound 115] | < 300 nM
Cn1c2nc(Cc3cc[nH]n3)sc2c2cnn(Cc3cccc4[nH]ncc34)c(=O)c21 [Compound 31] | < 300 nM
Cc1nc2c(s1)c1cnn(Cc3ccc4[nH]c(=O)[nH]c4c3)c(=O)c1n2C [Compound 22] | > 800 nM
Cn1c2nc(Cn3cnnc3)sc2c2cnn(Cc3cc[nH]n3)c(=O)c21 [Compound 106] | > 800 nM
CC(=O)Nc1ccc(F)c(Cn2ncc3c4sc(Cc5cnn(C)c5)nc4n(C)c3c2=O)n1 [Compound 127] | 301 to 800 nM
Cn1c2nc([S+](C)[O-])sc2c2cnn(Cc3ccc(C(N)=O)cc3)c(=O)c21 (centres unmarked) [Compound 37] | > 800 nM
COc1ncc(Cc2nc3c(s2)c2cnn(Cc4cccc5[nH]ncc45)c(=O)c2n3C)cn1 [Compound 80] | < 300 nM
Cn1c2nc([S+](C)[O-])sc2c2cnn(Cc3cnc(N)s3)c(=O)c21 (centres unmarked) [Compound 38] | < 300 nM
Cn1c2nc(Cc3c[nH]nn3)sc2c2cnn(Cc3ccccc3)c(=O)c21 [Compound 97] | > 800 nM
Cc1nc2c(s1)c1cnn(Cc3cccc4cn[nH]c34)c(=O)c1n2C [Compound 23] | 301 to 800 nM
Cn1ccc(Cn2ncc3c4sc(Cc5cc[nH]n5)nc4n(C)c3c2=O)n1 [Compound 83] | < 300 nM
Cc1nc2c(s1)c1cnn(Cc3ccc(CO)cc3)c(=O)c1n2C [Compound 14] | > 800 nM
Cn1c2nc(Cc3csc(C(N)=O)n3)sc2c2cnn(Cc3cccc4[nH]ncc34)c(=O)c21 [Compound 79] | > 800 nM
Cn1cc(C(=O)O)c(Cn2ncc3c4sc(Cc5cc[nH]n5)nc4n(C)c3c2=O)n1 [Compound 117] | > 800 nM

Compound | AC50
Cn1c2nc(Nc3ccccc3)sc2c2cnn(Cc3cccc4[nH]ncc34)c(=O)c21 [Compound 52] | > 800 nM
Cn1c2nc(Cc3cc[nH]n3)sc2c2cnn(CCc3cccc(N)n3)c(=O)c21 [Compound 126] | < 300 nM
Cc1nc2c(s1)c1cnn(Cc3cccc4[nH]ncc34)c(=O)c1n2C [Compound 8] | < 300 nM
Cn1ccc(Cn2ncc3c4sc(C(=O)c5cc[nH]n5)nc4n(C)c3c2=O)n1 [Compound 122] | < 300 nM
Cc1nc2c(s1)c1cnn(Cc3cccc(F)c3)c(=O)c1n2C [Compound 2] | < 300 nM
Cn1c2nc(Cc3cc[nH]n3)sc2c2cnn(Cc3ccc(C(N)=O)cc3)c(=O)c21 [Compound 61] | > 800 nM
Cn1c2nc(Cc3ccc(C#N)cc3)sc2c2cnn(Cc3cccc4[nH]ncc34)c(=O)c21 [Compound 33] | > 800 nM
COCc1cn(C)nc1Cn1ncc2c3sc(Cc4cc[nH]n4)nc3n(C)c2c1=O [Compound 120] | > 800 nM
Cn1ccc(Cn2ncc3c4sc(Cc5cscn5)nc4n(C)c3c2=O)n1 [Compound 96] | < 300 nM
COc1cccc(Cn2ncc3c4sc(C(=O)c5ccccc5)nc4n(C)c3c2=O)c1 [Compound 1] | < 300 nM
Cn1c2nc(C(=O)c3cc[nH]n3)sc2c2cnn(Cc3cccc(N)n3)c(=O)c21 [Compound 123] | < 300 nM
O=c1c2c(cnn1Cc1ccccc1)c1sc(Cc3cc[nH]n3)nc1n2Cc1ccccc1 [Compound 142] | > 800 nM
Cc1nc2c(s1)c1cnn(Cc3cccc(F)n3)c(=O)c1n2C [Compound 9] | 301 to 800 nM
Cn1ccc(Cn2ncc3c4sc(Cc5cccc(N)n5)nc4n(C)c3c2=O)n1 [Compound 109] | < 300 nM
Cn1c2nc(Cc3ccccn3)sc2c2cnn(Cc3cc[nH]n3)c(=O)c21 [Compound 92] | < 300 nM
Cn1c2nc(Cc3c[nH]nn3)sc2c2cnn(Cc3cc[nH]n3)c(=O)c21 [Compound 100] | < 300 nM
Cn1c2nc(Cc3cc[nH]n3)sc2c2cnn(Cc3cccc4c3NS(=O)(=O)N4)c(=O)c21 [Compound 98] | 301 to 800 nM
CSc1nc2c(s1)c1cnn(Cc3ccc(S(N)(=O)=O)cc3)c(=O)c1n2C [Compound 44] | > 800 nM
Cn1c2nc(Cn3ccnc3)sc2c2cnn(Cc3cccc4[nH]ncc34)c(=O)c21 [Compound 99] | < 300 nM
Cn1c2nc(Cn3ccnc3)sc2c2cnn(Cc3cccc(C(N)=O)c3)c(=O)c21 [Compound 129] | < 300 nM
Cn1c2nc(C(O)c3ccccn3)sc2c2cnn(Cc3cccc4[nH]ncc34)c(=O)c21 (centres unmarked) [Compound 48] | > 800 nM
Cn1c2nc(Cc3ccc(=O)[nH]c3)sc2c2cnn(Cc3cccc4[nH]ncc34)c(=O)c21 [Compound 60] | > 800 nM
Cn1c2nc([S+](C)[O-])sc2c2cnn(Cc3cccc4c3CCNC4)c(=O)c21 (centres unmarked) [Compound 30] | < 300 nM
Cn1c2nc(Cc3cc[nH]n3)sc2c2cnn(Cc3ccn[nH]3)c(=O)c21 [Compound 63] | < 300 nM
Cn1c2nc(Cc3ccns3)sc2c2cnn(Cc3cccc4[nH]ncc34)c(=O)c21 [Compound 82] | 301 to 800 nM

Compound | AC50
Cn1c2nc(Cc3cc[nH]c(=O)c3)sc2c2cnn(Cc3cccc4[nH]ncc34)c(=O)c21 [Compound 76] | < 300 nM
COC(=O)C(c1ccccc1)c1nc2c(s1)c1cnn(Cc3cccc4[nH]ncc34)c(=O)c1n2C (centres unmarked) [Compound 51] | < 300 nM
Cc1nc2c(s1)c1cnn(CO)c(=O)c1n2C [Compound 7] | > 800 nM
CC(=O)Nc1ccc(F)c(Cn2ncc3c4sc(Cn5ccnc5)nc4n(C)c3c2=O)n1 [Compound 130] | > 800 nM
Cn1c2nc(Cc3ncsc3F)sc2c2cnn(Cc3cc[nH]n3)c(=O)c21 [Compound 112] | < 300 nM
C=Cc1nc2c(s1)c1cnn(Cc3cccc(OC)c3)c(=O)c1n2C [Compound 11] | < 300 nM
Cc1cccc(Cn2ncc3c4sc(Cc5cc[nH]n5)nc4n(C)c3c2=O)n1 [Compound 73] | < 300 nM
CSc1nc2c(s1)c1cnn(Cc3csc(-n4c(C)ccc4C)n3)c(=O)c1n2C [Compound 47] | > 800 nM
Cn1c2nc(Cc3csc(CO)n3)sc2c2cnn(Cc3nccs3)c(=O)c21 [Compound 93] | < 300 nM
CSc1nc2c(s1)c1cnn(Cc3cn4cccnc4n3)c(=O)c1n2C [Compound 40] | > 800 nM
Cc1nc2c(s1)c1cnn(Cc3cn[nH]c3)c(=O)c1n2C [Compound 26] | 301 to 800 nM
Cn1ccc(Cn2ncc3c4sc(Cc5n[nH]cc5F)nc4n(C)c3c2=O)n1 [Compound 113] | < 300 nM
CC(=O)c1cccc(Cn2ncc3c4sc([S+](C)[O-])nc4n(C)c3c2=O)c1 (centres unmarked) [Compound 32] | < 300 nM
Cn1c2nc(Cc3cnc(O)nc3)sc2c2cnn(Cc3cccc4[nH]ncc34)c(=O)c21 [Compound 81] | > 800 nM
Cn1ccc(CCn2ncc3c4sc(Cc5cccnc5)nc4n(C)c3c2=O)n1 [Compound 137] | 301 to 800 nM
C=Cc1nc2c(s1)c1cnn(Cc3cccc4[nH]ncc34)c(=O)c1n2C [Compound 39] | < 300 nM
CNCc1nc2c(s1)c1cnn(Cc3cccc4[nH]ncc34)c(=O)c1n2C [Compound 46] | < 300 nM
Cn1c2nc(Cn3cnnc3)sc2c2cnn(Cc3cccc4[nH]ncc34)c(=O)c21 [Compound 102] | 301 to 800 nM
Cc1nc2c(s1)c1cnn(Cc3c[nH]cn3)c(=O)c1n2C [Compound 12] | > 800 nM
Cn1c2nc(Cc3n[nH]cc3F)sc2c2cnn(Cc3n[nH]cc3OC(F)(F)F)c(=O)c21 [Compound 121] | 301 to 800 nM
COC(=O)c1nc2c(s1)c1cnn(Cc3cccc(OC)c3)c(=O)c1n2C [Compound 13] | 301 to 800 nM
C=CCn1ncc2c3sc(Cc4ccccn4)nc3n(C)c2c1=O [Compound 133] | > 800 nM
Cn1c2nc([S+](C)[O-])sc2c2cnn(Cc3ccc(C#N)cc3)c(=O)c21 (centres unmarked) [Compound 27] | 301 to 800 nM
Cn1c2nc(Cc3cc[nH]n3)sc2c2cnn(Cc3cscn3)c(=O)c21 [Compound 87] | < 300 nM
